Assay results reported in patent US11109593B2, “Isoxazolin-5-one derivative and herbicide containing same as active ingredient” (HOKKO CHEMICAL INDUSTRY CO., LTD., priority 2017, dated 2021).

What was measured:
Assay type in all cases: in vivo
[1] = system: broad leaf weeds (Lindernia pyxidaria and Monochoria vaginalis); experiment: Test Example 2: herbicidal effect test by treatment during growing period in paddy rice cultivation (seven days after seeding); settings: 120 g/10a active ingredient, assessed 14 days after treatment, dry weight vs untreated area
Outline: (§1)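 Seeds sown 0–1 cm deep in puddled, fertilised paddy soil with about 3 cm standing water in a glass greenhouse. Diluted emulsion dropped into the water seven days after seeding at 120 g active ingredient per 10 ares. Herbicidal rate (%) from mean dry weight vs untreated, duplicate, 14 days after treatment.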

Scirpus juncoides [2] = experiment: as above; settings: 120 g/10a active ingredient, assessed 14 days after treatment, dry weight vs untreated area
Outline: as §1

Echinochloa crus-galli [3] = experiment: as above; settings: 120 g/10a active ingredient, assessed 14 days after treatment, dry weight vs untreated area
Outline: as §1

Amaranthus viridis [4] = experiment: Test Example 3: herbicidal effect test by treatment of dry field farming soil (one day after seeding); settings: 120 g/10a active ingredient, evaluated 14 days after treatment
Outline: (§2)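 Alluvial dry-field soil in pots, top 1 cm mixed with 20 seeds per weed species. One day after seeding, the water-diluted emulsion was sprayed onto the soil surface at 100 L per 10 ares (120 g active ingredient per 10 ares). Duplicate pots; herbicidal rate (%) from plant dry weight versus untreated, 14 days after treatment.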

Echinochloa crus-galli [5] = experiment: as above; settings: 120 g/10a active ingredient, evaluated 14 days after treatment
Outline: as §2

southern crabgrass [6] = experiment: as above; settings: 120 g/10a active ingredient, evaluated 14 days after treatment
Outline: as §2

Chenopodium album [7] = experiment: as above; settings: 120 g/10a active ingredient, evaluated 14 days after treatment
Outline: as §2

Amaranthus viridis [8] = experiment: Test Example 4: herbicidal effect test by treatment of leave and stem in dry field farming (seven days after seeding); settings: 120 g/10a active ingredient; emulsion sprayed seven days after seeding; evaluated 14 days after treatment
Outline: (§3)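 Twenty seeds per species were mixed into the top 1 cm of alluvial soil in 36 cm^2 pots; emulsions were sprayed seven days after seeding at 100 L per 10 ares (120 g active ingredient per 10 ares). Herbicidal rate (%) = {1 − treated/untreated mean dry weight} × 100, 14 days after treatment, duplicate.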

Echinochloa crus-galli [9] = experiment: as above; settings: 120 g/10a active ingredient; emulsion sprayed seven days after seeding; evaluated 14 days after treatment
Outline: as §3

southern crabgrass [10] = experiment: as above; settings: 120 g/10a active ingredient; emulsion sprayed seven days after seeding; evaluated 14 days after treatment
Outline: as §3

Chenopodium album [11] = experiment: as above; settings: 120 g/10a active ingredient; emulsion sprayed seven days after seeding; evaluated 14 days after treatment
Outline: as §3

[12] = system: broad leaf weeds (Lindernia pyxidaria and Monochoria vaginalis); experiment: Test Example 1: herbicidal effect test by treatment of rice paddy soil (immediately after seeding); settings: 120 g/10a active ingredient, dry weight vs untreated area, 14 days after treatment
Outline: (§4)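 Applied at 120 g a.i./10 ares as diluted emulsion dropped into flooded (~3 cm) paddy soil pots right after sowing seeds 0–1 cm deep; greenhouse, two replicates. At day 14, dry weight of treated versus untreated plants gives % herbicidal rate.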

Scirpus juncoides [13] = experiment: as above; settings: 120 g/10a active ingredient, dry weight vs untreated area, 14 days after treatment
Outline: as §4

Echinochloa crus-galli [14] = experiment: as above; settings: 120 g/10a active ingredient, dry weight vs untreated area, 14 days after treatment
Outline: as §4

SMILES | Herbicidal rate (%) Lindernia pyxidaria [1] | Herbicidal rate (%) Monochoria vaginalis [1] | Herbicidal rate (%) Scirpus juncoides (Scirpus juncoides [2]) | Herbicidal rate (%) Echinochloa crus-galli (Echinochloa crus-galli [3]) | herbicidal rate, Amaranthus viridis (Amaranthus viridis [4]) | herbicidal rate, Echinochloa crus-galli (Echinochloa crus-galli [5]) | herbicidal rate, southern crabgrass (southern crabgrass [6]) | herbicidal rate, Chenopodium album (Chenopodium album [7]) | herbicidal effect (herbicidal rate), Amaranthus viridis (Amaranthus viridis [8]) | herbicidal effect (herbicidal rate), Echinochloa crus-galli (Echinochloa crus-galli [9]) | herbicidal effect (herbicidal rate), southern crabgrass (southern crabgrass [10]) | herbicidal effect (herbicidal rate), Chenopodium album (Chenopodium album [11]) | Herbicidal rate (%) Lindernia pyxidaria [12] | Herbicidal rate (%) Monochoria vaginalis [12] | Herbicidal rate (%) Scirpus juncoides (Scirpus juncoides [13]) | Herbicidal rate (%) Echinochloa crus-galli (Echinochloa crus-galli [14])
Cc1c(Cc2ccccc2N(C(=O)C2CC2)S(=O)(=O)C(F)(F)F)c(=O)on1C(C)c1ccccc1 (stereo not drawn) [Compound 1-416] | 90% | 90% | 90% | 90% | 90% | 90% | 90% | 90% | 40% | 90% | 90% | 40% | 90% | 90% | 90% | 90%
CCC(C)n1oc(=O)c(Cc2ccccc2N(C(=O)Cc2ccccc2)S(=O)(=O)C(F)(F)F)c1C (stereo not drawn) [Compound 1-504] | 90% | 90% | 90% | 90% | 90% | 90% | 90% | 90% | 40% | 90% | 90% | 40% | 90% | 90% | 90% | 90%
CCC(C)Cn1oc(=O)c(Cc2ccccc2N(C(C)=O)S(=O)(=O)C(F)(F)F)c1C (stereo not drawn) [Compound 1-300] | 70% | 90% | 80% | 100% | 80% | 90% | 100% | 60% | 70% | 90% | 90% | 60% | 80% | 70% | 90% | 100%
CSCCn1oc(=O)c(Cc2ccccc2N(C(=O)C2CC2)S(=O)(=O)C(F)(F)F)c1C [Compound 1-413] | 90% | 90% | 90% | 90% | 90% | 90% | 90% | 90% | 40% | 90% | 90% | 40% | 90% | 90% | 90% | 90%
CCCC(C)n1oc(=O)c(Cc2ccccc2NS(=O)(=O)C(F)(F)F)c1C (stereo not drawn) [Compound 1-109] | 70% | 90% | 90% | 90% | 60% | 90% | 90% | 60% | 70% | 90% | 80% | 50% | 100% | 100% | 100% | 100%
CCC(C)Cn1oc(=O)c(Cc2ccccc2N(S(C)(=O)=O)S(=O)(=O)C(F)(F)F)c1C (stereo not drawn) [Compound 1-895] | 70% | 80% | 90% | 90% | 80% | 100% | 100% | 50% | 50% | 80% | 80% | 60% | 90% | 80% | 90% | 100%
COCC(C)n1oc(=O)c(Cc2ccccc2N(C(=O)c2ccccc2)S(=O)(=O)C(F)(F)F)c1C (stereo not drawn) [Compound 1-479] | 90% | 90% | 90% | 90% | 90% | 90% | 90% | 90% | 40% | 90% | 90% | 40% | 90% | 90% | 90% | 90%
CCCC(C)n1oc(=O)c(Cc2ccccc2N(C(=O)C(C)C)S(=O)(=O)C(F)(F)F)c1C (stereo not drawn) [Compound 1-334] | 70% | 70% | 90% | 100% | 50% | 90% | 70% | 40% | 60% | 90% | 90% | 60% | 70% | 80% | 90% | 100%
C#CCn1oc(=O)c(Cc2ccccc2NS(=O)(=O)C(F)(F)F)c1C [Compound 1-138] | 80% | 80% | 80% | 90% | 0% | 90% | 90% | 0% | 40% | 80% | 80% | 0% | 100% | 100% | 90% | 90%
